Reference: patent US7332474B2, “Peptides and related compounds having thrombopoietic activity” (Amgen Inc., priority 2001, dated 2008)
pEC50, pIC50: −log10 of the molar value.

Tests used:
c-mpl [1] = target: T1, c-mpl (Homo sapiens, UniProt P40238); details: Cwirla et al., Science 276:1696-1699 (1997); cited from earlier work
T1 sequence (P40238 26-635): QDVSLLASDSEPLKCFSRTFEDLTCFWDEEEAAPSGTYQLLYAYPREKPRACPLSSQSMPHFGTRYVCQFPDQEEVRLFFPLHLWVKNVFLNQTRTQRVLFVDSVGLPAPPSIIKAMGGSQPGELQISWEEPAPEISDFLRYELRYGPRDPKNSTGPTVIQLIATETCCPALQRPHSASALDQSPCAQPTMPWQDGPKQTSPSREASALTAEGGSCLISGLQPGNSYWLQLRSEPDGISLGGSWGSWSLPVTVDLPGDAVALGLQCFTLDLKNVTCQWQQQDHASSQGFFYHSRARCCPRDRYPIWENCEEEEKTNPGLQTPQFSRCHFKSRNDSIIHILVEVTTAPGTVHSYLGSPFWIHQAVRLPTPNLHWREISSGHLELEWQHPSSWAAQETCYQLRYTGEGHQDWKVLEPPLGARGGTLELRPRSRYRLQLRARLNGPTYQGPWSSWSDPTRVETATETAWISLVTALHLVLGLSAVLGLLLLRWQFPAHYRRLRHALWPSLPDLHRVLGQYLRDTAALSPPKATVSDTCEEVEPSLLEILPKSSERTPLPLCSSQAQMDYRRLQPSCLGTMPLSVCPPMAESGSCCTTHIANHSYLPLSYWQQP

c-mpl [2] = target: T1, c-mpl; details: Cwirla et al., Science 276:1696-1699 (1997); cited from earlier work; remark: listed apart in the source
hu-mpl = hu-mpl (Homo sapiens, UniProt P40238); details: ratio of KD of TMP1 to KD of peptide
[3] = target: murine 32D cells transfected with a human mpl receptor (Homo sapiens, UniProt P40238)
Description: The murine 32D cell proliferation assay involves the use of murine 32D cells that have been transfected with a human mpl receptor.

Sequence	pEC50 (c-mpl [1])	pIC50 (c-mpl [2])	Affinity relative to TMP1 (hu-mpl)	Murine 32D Cell Proliferation Assay (relative to TMP1) [3]
IEGPTLRQWLAARA [TPO mimetic peptide]	6.40	8.70		
QGALQEGPTLRQWLGWGQWGHS [TMP19]			0.07	27%
QGCSSGGPTLREWLQCRRMQHS [TMP22]			>54	Not Detectable
QGCSWGGPTLKQWLQCVRAKHS [TMP23]			>54	Not Detectable
SAQGIEGPTLRQWLAARALETV [TMP1, reference compound]				100%
